This is an account of results in BindingDB's records for doi:10.1016/j.ejmech.2019.02.016 (National Health Research Institutes, 2019).

Each structure is given as a SMILES string. pEC50: −log10 of the molar value.

A short description of the assay: Inhibition of NS5A in HCV genotype 1b infected in human HuH7 replicon cells assessed as reduction in subgenomic viral RNA replication treated for 2 days followed by compound washout and subsequent compound dosing measured after 1 day by SEAP reporter gene assay.
As for `CCCCC(=O)N[C@H](C(=O)N1CCC[C@H]1c1ncc(-c2ccc(-c3ccc(-c4cnc([C@@H]5CCCN5C(=O)[C@H](NC(=O)CCCC)c5ccccc5)s4)cc3)cc2)s1)c1ccccc1`, the pEC50 (in general, the EC50 on a negative log10 scale, so that one unit is a factor of ten) was 8.12.
Then `CCCC(=O)N[C@H](C(=O)N1CCC[C@H]1c1ncc(-c2ccc(-c3ccc(-c4cnc([C@@H]5CCCN5C(=O)[C@H](NC(=O)CCC)c5ccccc5)s4)cc3)cc2)s1)c1ccccc1`, with 9.11; and `CCC(=O)N[C@H](C(=O)N1CCC[C@H]1c1ncc(-c2ccc(-c3ccc(-c4cnc([C@@H]5CCCN5C(=O)[C@H](NC(=O)CC)c5ccccc5)s4)cc3)cc2)s1)c1ccccc1`, with 9.07.
`CCN(CC)CCC(=O)N[C@@H](C(=O)N1CCC[C@H]1c1ncc(-c2ccc(-c3ccc(-c4cnc([C@@H]5CCCN5C(=O)[C@H](NC(=O)CCN(CC)CC)c5ccccc5)s4)cc3)cc2)s1)c1ccccc1`: the pEC50 was 9.00.
Take `CN(C)CCC(=O)N[C@@H](C(=O)N1CCC[C@H]1c1ncc(-c2ccc(-c3ccc(-c4cnc([C@@H]5CCCN5C(=O)[C@H](NC(=O)CCN(C)C)c5ccccc5)s4)cc3)cc2)s1)c1ccccc1`: the negative logarithm of the EC50 (pEC50) was 8.60.
With `O=C(N[C@@H](C(=O)N1CCC[C@H]1c1ncc(-c2ccc(-c3ccc(-c4cnc([C@@H]5CCCN5C(=O)[C@H](NC(=O)N5CCCCC5)c5ccccc5)s4)cc3)cc2)s1)c1ccccc1)N1CCCCC1`, the negative-log EC50 (pEC50) is 10.80.
As for `O=C(N[C@@H](C(=O)N1CCC[C@H]1c1ncc(-c2ccc(-c3ccc(-c4cnc([C@@H]5CCCN5C(=O)[C@H](NC(=O)N5CCCC5)c5ccccc5)s4)cc3)cc2)s1)c1ccccc1)N1CCCC1`, the pEC50 is 10.46.
Consider `O=C(N[C@@H](C(=O)N1CCC[C@H]1c1ncc(-c2ccc(-c3ccc(-c4cnc([C@@H]5CCCN5C(=O)[C@H](NC(=O)c5ccsc5)c5ccccc5)s4)cc3)cc2)s1)c1ccccc1)c1ccsc1`, for which the pEC50 was 9.28.
Take `O=C(N[C@@H](C(=O)N1CCC[C@H]1c1ncc(-c2ccc(-c3ccc(-c4cnc([C@@H]5CCCN5C(=O)[C@H](NC(=O)c5ccco5)c5ccccc5)s4)cc3)cc2)s1)c1ccccc1)c1ccco1`: the pEC50 is 10.15.
For `O=C(N[C@@H](C(=O)N1CCC[C@H]1c1ncc(-c2ccc(-c3ccc(-c4cnc([C@@H]5CCCN5C(=O)[C@H](NC(=O)c5ccccn5)c5ccccc5)s4)cc3)cc2)s1)c1ccccc1)c1ccccn1`, the pEC50 is 7.34.
With `O=C(N[C@@H](C(=O)N1CCC[C@H]1c1ncc(-c2ccc(-c3ccc(-c4cnc([C@@H]5CCCN5C(=O)[C@H](NC(=O)c5ccccc5)c5ccccc5)s4)cc3)cc2)s1)c1ccccc1)c1ccccc1`, the pEC50 was 7.68.
For the compound `O=C(N[C@@H](C(=O)N1CCC[C@H]1c1ncc(-c2ccc(-c3ccc(-c4cnc([C@@H]5CCCN5C(=O)[C@H](NC(=O)C5CCCCC5)c5ccccc5)s4)cc3)cc2)s1)c1ccccc1)C1CCCCC1`, the pEC50 is 9.60.
As for `O=C(N[C@@H](C(=O)N1CCC[C@H]1c1ncc(-c2ccc(-c3ccc(-c4cnc([C@@H]5CCCN5C(=O)[C@H](NC(=O)C5CCCC5)c5ccccc5)s4)cc3)cc2)s1)c1ccccc1)C1CCCC1`, the pEC50 was 11.22.
For the compound `CC(C)(C)C(=O)N[C@@H](C(=O)N1CCC[C@H]1c1ncc(-c2ccc(-c3ccc(-c4cnc([C@@H]5CCCN5C(=O)[C@H](NC(=O)C(C)(C)C)c5ccccc5)s4)cc3)cc2)s1)c1ccccc1`, the pEC50 is 8.85.
Turning to `CCCCCC(=O)N[C@@H](C(=O)N1CCC[C@H]1c1ncc(-c2ccc(-c3ccc(-c4cnc([C@@H]5CCCN5C(=O)[C@H](NC(=O)CCCCC)c5ccccc5)s4)cc3)cc2)s1)c1ccccc1`, the pEC50 was 10.20.
Consider `CCCCC(=O)N[C@@H](C(=O)N1CCC[C@H]1c1ncc(-c2ccc(-c3ccc(-c4cnc([C@@H]5CCCN5C(=O)[C@H](NC(=O)CCCC)c5ccccc5)s4)cc3)cc2)s1)c1ccccc1`, for which the negative logarithm of the EC50 (pEC50) is 10.51.
As to `CCC(=O)N[C@@H](C(=O)N1CCC[C@H]1c1ncc(-c2ccc(-c3ccc(-c4cnc([C@@H]5CCCN5C(=O)[C@H](NC(=O)CC)c5ccccc5)s4)cc3)cc2)s1)c1ccccc1`, the pEC50 was 10.80.
